{"source": "patent US9879006B2", "about": "“Azaindole acetic acid derivatives and their use as prostaglandin D2 receptor modulators” (IDORSIA PHARMACEUTICALS LTD, priority 2014, dated 2018)", "key": {"hCRTH2 receptor [1]": {"target": "T1, hCRTH2 receptor (Homo sapiens, UniProt Q9Y5Y4)", "T1 construct": "expressed in transfected cells; host or cells: HEK293 (recombinant HEK293-hCRTH2), membrane fragments", "T1 sequence (Q9Y5Y4 1-395)": "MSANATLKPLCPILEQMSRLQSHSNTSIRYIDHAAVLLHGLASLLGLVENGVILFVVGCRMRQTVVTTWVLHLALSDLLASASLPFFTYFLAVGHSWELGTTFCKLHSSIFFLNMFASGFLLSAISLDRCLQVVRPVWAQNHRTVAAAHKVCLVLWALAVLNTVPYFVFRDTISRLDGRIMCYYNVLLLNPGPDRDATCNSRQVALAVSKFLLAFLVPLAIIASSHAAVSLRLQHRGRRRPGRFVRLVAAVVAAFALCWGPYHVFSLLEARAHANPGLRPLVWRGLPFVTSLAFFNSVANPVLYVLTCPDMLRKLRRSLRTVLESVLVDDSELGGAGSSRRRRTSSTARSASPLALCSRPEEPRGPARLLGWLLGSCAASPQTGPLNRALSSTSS", "experiment": "Radioligand displacement assay in presence of human serum albumin (HSA)", "settings": "displacement of 3H-PGD2, Binding-Buffer with 0.5% human serum albumin instead of 0.1% BSA", "protocol": "(§1) First, recombinant HEK293-hCRTH2 cells were detached from culture plates into 5 ml buffer A/plate (Buffer A: 5 mM Tris, 1 mM MgCl2-6H2O pH=7.4) using a rubber policeman. Cells were then transferred into centrifugation tubes and centrifuged for 5 min at 400 g. The cell pellet was resuspended in the same buffer and tubes were frozen at 80° C. Cells were thawed and membrane fragments were generated by homogenization using a polytron homogenizer (30 seconds). The membrane fragments were then centrifuged at 3000 g for 20 minutes and resuspended in buffer C (Buffer C: 75 mM Tris, 25 mM MgCl2, 250 mM Saccharose pH 7.4). Aliquots of membrane fragments were stored at −20° C.\n(§2) Binding assay was performed in a final assay volume of 250 μl. First, 25 μl of test compound, previously diluted in Binding-Buffer (Binding-Buffer: 50 mM Tris-Base, 100 mM NaCl, 1 mM EDTA, 0.1% BSA (protease free), 0.01% NaN3, 10 mM MnCl2 pH 7.0) was placed into each well. After addition of 75 μl Binding-Buffer, 50 μl of the radioligand ^3H-PGD2 (at 2.5 nM (220.000 dpm/well) from ANAWA ART0662) was added to each well. Binding assay was started by addition of 100 μl CRTH2 membrane fragments, reaching a final concentration of 20 μg/well. For non-specific binding, PGD2 was added to the reaction mixture to […] final concentration. This assay mix was incubated for 90 minutes at room temperature and then filtered through a GF/C filter 96-well plate which was pre-soaked for 3 hours in 0.5% polyethyleneimine (PEI). The filter-wells were washed three times with ice cold Binding-Buffer. Then, 40 μl of Microscint-40 (Packard) was added to each well and the retained radioactivity quantified in a Topcount (Packard).\nRadioligand Displacement Assay-Human Serum Albumin (HSA):\nRadioligand displacement assay in presence of human serum albumin (HSA) was performed as described above, with following modifications. Binding-Buffer-HSA: Binding-buffer+0.5% Sigma Albumin from Human serum A1887 (instead of 0.1% BSA). A volume of 25 μl test compound, previously diluted in Binding-Buffer-HSA was placed into each well. After addition of 75 μl Binding-Buffer-HSA, 50 μl of ^3H-PGD2 (at 2.5 nM (220.000 dpm/well) from ANAWA ART0662) was added to each well. Remaining protocol was identical as described above."}, "hCRTH2 receptor [2]": {"target": "T1, hCRTH2 receptor", "experiment": "hCRTH2 receptor membranes radioligand displacement assay", "settings": "displacement of 3H-PGD2 (2.5 nM), HEK293-hCRTH2 membrane fragments, Binding-Buffer with 0.1% BSA", "protocol": "Preparation of hCRTH2 Receptor Membranes and Radioligand Displacement Assay:\nas §1, §2"}, "[3]": {"tested_on": "eosinophils (PGD2-induced shape change)", "experiment": "Eosinophil shape change assay with human plasma", "assay_type": "cell-based", "settings": "human polymorphonuclear cells, 50% human plasma, activated with PGD2 100 nM, flow cytometry forward-scatter", "protocol": "Eosinophil Shape Change Assay with Human Plasma\nAfter obtaining informed consent, blood samples were drawn by venipuncture according to the protocol approved by the ethics committee of Basel, Switzerland. Polymorphonuclear leukocytes (containing eosinophils, basophils and neutrophils) were isolated using the Polymorphprep™ method (Axis-Shield). In brief, anticoagulated whole blood was layered onto a Polymorphprep gradient (density 1.113 g/ml) and centrifuged at 500 g for 30 min. The polymorphonuclear cell fraction was harvested and depleted for erythrocytes by hypotonic saline lysis.\nThe polymorphonuclear cells were resuspended in assay buffer (1×PBS with Ca^2+/Mg^2+ supplemented with 0.1% BSA, 10 mM HEPES, and 10 mM Glucose, pH 7.4) at 5×10^6 cells/ml and stained with anti-CD49d-APC ((APC=Allophycocyanin) for 1 hour at RT. Test compounds, at various concentrations, were preincubated 10 min in human plasma (anticoagulated with a thrombin inhibitor). Then, human plasma was added to the polymorphonuclear cells to 50% of final assay volume with polymorphonuclear cells at 4×10^6 cells/ml. After incubation for 10 minutes at 37° C., the polymorphonuclear cells were activated for 5 min at 37° C. by addition of PGD2 at 100 nM final concentration. Activation was stopped by addition of 0.5 ml paraformaldehyde (1%).\nImmediately after fixation with paraformaldehyde, the samples were analyzed by FACSCanto flow cytometer (BD Biosciences) and target cells were identified by their forward-scatter (FSC) and side-scatter (SSC) characteristics. Eosinophils were identified by the anti-CD49d-APC signal and their characteristic side-scatter (SSC) profile. Shape change responses, indicative of eosinophil activation, were quantified as the percent of cells with an increased forward-scatter."}}, "note": "pIC50: −log10 of the molar value.", "data": [{"smiles": "O=C(O)Cn1c2c(c3nc(F)ccc31)C[C@@H](Nc1ncc(Cl)cn1)CC2", "note": "[Example 8, (S)-2-(8-((5-chloropyrimidin-2-yl)amino)-2-fluoro-6,7,8,9-tetrahydro-5H-pyrido[3,2-b]indol-5-yl)acetic acid]", "values": [{"measurement": "pIC50", "setting": "hCRTH2 receptor [1]", "value": 7.66}, {"measurement": "pIC50", "setting": "hCRTH2 receptor [2]", "value": 7.72}, {"measurement": "pIC50", "setting": "[3]", "value": 7.49}]}]}
